From patent publication US11413281B2, “Ternary conjugate of antitumor drug, and synthesis and application” (priority 2016, dated 2022)
Where no end group is shown, it is not given here.

Tests used:
[1] = tested on: leukemia cells (K562); assay: In vitro anti-tumor activity, MTT assay, K562; format: cell-based; settings: Homo sapiens, K562, 48 h, read-out: K562 (IC50, μM)
Protocol: (§1) Preparation of MTT solution: MTT dry powder 0.5 g was dissolved in 100 mL PBS buffer, filtered and sterilized with a […] filter, and placed in a refrigerator at −12° C. for storage.
(§2) Three types of tumor cells used in the assay for antitumor activity are human hepatoma cells (HepG2), leukemia cells (K562) and human colon cancer cells (HCT116).
K562 cells were cultured in RPMI1640 cell culture medium containing 1% penicillin-streptomycin solution, 10% fetal bovine serum, and incubated at 37° C. in a constant temperature incubator containing 5% CO2. Specific steps:
The cells were counted using a hemocytometer and diluted to 5×10^4 cells/mL with RPMI medium;
100 μL of cell suspension was added to each well of a 96-well plate, incubated at 37° C. for 2 h.
(§3) The desired test compounds were diluted to 5 concentrations: 2 mM, 0.2 mM, 20 μM, 2 μM, 0.2 μM, and 0.5 μL/well was sequentially added according to the concentration, incubated at 37° C. for 48 h.
MTT was added at a concentration of 5 mg/mL, incubated at 37° C. for 4 hours.
Isopropanol and hydrochloric acid lysis were added, and the OD values at 570 nm and 630 nm were measured with a microplate reader.
(§4) Processing data, calculate IC50 value according to OD value.

[2] = tested on: human hepatoma cells (HepG2); assay: In vitro anti-tumor activity, MTT assay, HepG2; format: cell-based; settings: HepG2, 48 h, read-out: HepG2 (IC50, μM)
Protocol: Formulation of DMEM low glucose medium: HyClone MEM low glucose medium, 500 mL per bottle, add 10% fetal bovine serum and 1% solution of penicillin, stored in a refrigerator at 4° C.
as §1, §2
Human Hepatocarcinoma Cell (HepG2) Test
The culture medium for HepG2 cells was DMEM cell culture medium containing 1% penicillin-streptomycin solution and 10% fetal bovine serum, and the culture condition was 37° C. and a constant temperature incubator containing 5% CO2. Specific steps:
The cells were counted using a hemocytometer and diluted with DMEM low glucose to 5×10^4 cells/mL.
(§5) Add 100 μL of cell suspension to each well of a 96-well plate, mix, incubated at 37° C. for 24 h.
as §3
(§6) MTT was added at a concentration of 5 mg/mL, incubated at 37° C. for 4 h.
Cells were lysed by addition of DMSO, and the OD values at 490 nm and 630 nm were measured with a microplate reader. […]

[3] = tested on: human colon cancer cells (HCT116); assay: In vitro anti-tumor activity, MTT assay, HCT116; format: cell-based; settings: HCT-116, 48 h, read-out: HCT116 (IC50, μM)
Protocol: Preparation of DMEM/F-12 culture broth: HyClone MEM/F-12 medium, 500 mL per bottle, add 10% fetal bovine serum and 1% solution of penicillin, stored in a refrigerator at 4° C.
as §1, §2
Human colon cancer cell HCT116 test
The culture fluid used for HCT116 cells was a DMEM/F-12 cell culture solution containing 1% penicillin-streptomycin solution, 10% fetal bovine serum. Specific steps:
The cells were counted using a hemocytometer and diluted with DMEM/F-12 medium to 5×10^4 cells/mL.
as §5, §3, §6
Cells were lysed by addition of DMSO, and the OD values at 490 nm and 630 nm were measured with a microplate reader.
as §4

[4] = tested on: E-selectin mediated adhesion of THP-I to HUVECs; assay: Adhesion test of human acute monocytic leukemia cells and endothelial cells; format: cell-based; settings: THP-I on TNF-α stimulated HUVECs, FIG. 4
Protocol: Example 3. Adhesion Test of Compounds Against Human Acute Monocytic Leukemia Cells and Endothelial Cells
Endothelial cell line HUVEC and human acute monocytic leukemia cell line THP-I were purchased from ATCC and cultured at 37° C. in a 5% CO2 saturated humidity medium, which contains 10% fetal bovine serum, RPMI 1640 with 100 μg/mL penicillin and F-12 with 100 μg/mL streptomycin, the cells were used at logarithmic growth phase.
Polylysine (20 μg/ml) (Shanghai Yuanye Biotechnology Co., Ltd.) was coated on a black 96-well cell culture plate (Corning Incorporated costar 3603) and incubated at 37° C. for 12 h. Endothelial cells HUVECs were seeded at a concentration of […] in black 96-well cell culture plates. After incubation at 37° C. for 36 h, the medium in the cell culture plates was removed. The experimental group was added with F-12 medium with 20 ng/ml TNF-α, F-12 medium without TNF-α was added to the control group, all the groups were incubated for 6 h at 37° C. […] 100 μl permeation solution (BIOSHARP) was added to each well and fluorescence was measured with a Synergy 4 Multiplate Reader (Biotek) (Ex, 485 nm; Em, 528 nm). The inhibitory effect of the candidate compound is inversely proportional to the fluorescence intensity, and the lower the fluorescence value, the stronger the inhibition effect of the compound.

[5] = Self-assembly in aqueous solution (proton NMR in DMSO-d6 vs D2O); format: physicochemical; settings: HCPT NMR signals disappear in D2O
From the text: The micelles enclose the hydrophobic structure inside. […] This phenomenon also exists in the conjugate of PEG and HCPT, and it is confirmed by dynamic light scattering and transmission electron microscopy, which showing it can form nanospheres or nanorods with about 200 nm diameter.

## CC[C@@]1(O)C(=O)OCc2c1cc1n(c2=O)Cc2cc3cc(O)ccc3nc2-1 [HCPT, 10-hydroxycamptothecin]
[1]
  IC50: < 1 µM
[2]
  IC50: < 1 µM
[3]
  IC50: < 1 µM

## Compound 9 (CIELLQAR-OH; also: Cys1 connects to remainder of compound 9 through SH and amino group)
[4]
  anti-E-selectin mediated cell adhesion in vitro: significant anti-E-selectin mediated cell adhesion
[5]
  self-assembly in aqueous solution: self-assembled into nano-micelles
